The source of these data is patent publication US20230038623A1, “NOVEL SKIN CARE COMPOSITION” (BEIERSDORF AG, priority 2019, published 2023).

One test has as its system C. acnes strain C3. The experiment in a line: Evaluation of the minimum inhibitory concentration (MIC) of cosmetic excipients. It counts as cell-based, Cutibacterium acnes. The conditions noted are these: MIC (% w/vol) at which compound starts interfering with growth, anaerobic, 3 days, 37° C., scored by turbidity. The method, then: (§1) In microbiology, the MIC is the lowest concentration of a chemical which prevents visible growth of bacterium. The resulted MIC value depends both on the microorganism and the test compound. The MIC is determined by preparing concentrations series of the test compound in vitro, incubating the solutions with the separate batches of cultured bacteria, and measuring the results using agar dilution or broth microdilution. For the experiments with C. acnes strains C3 and K8, media comprising yeast extract soy peptone and dextrose were used. The MIC is determined by turbidity.
(§2) A total of 125 cosmetic excipients were tested for their compatibility with C. acnes strains C3 and K8. Hydrophilic compounds were tested in a 96-well plate liquid broth format, poorly soluble compounds were pre-dissolved in DMSO before dilution in liquid broth and hydrophobic or solid compounds were tested in an agar well diffusion test assay. The different dilutions of the test excipients in media were prepared in Falcon tubes and then distributed in a deep well plate using a multistepper. Each well received 1.2 ml and was subsequently inoculated with 120 μl of C. acnes bacteria suspension (strain C3 and K8). From the deep well plate 200 μl were transferred in each well of a clear 96 well replicate plate. The leftover was discarded. The plates were then incubated anaerobically for 3 days at 37° C. Following incubation, the test plates were visually examined and wells were scored for growth or complete growth inhibition to define the minimum inhibitory concentration.
(§3) These excipients are listed in the below table with their compatibility values for C. acnes strains C3 and K8. The compatibility values represent the MIC value of the listed ingredients with the tested C. acnes strains. At this concentration [% w/vol] the tested compound starts interfering with the growth of the tested strains. The compounds can be used in formulations at concentrations below this concentration.

Another test relates to C. acnes strain K8. The description is as above. It counts as cell-based, Cutibacterium acnes. The note with it: MIC (% w/vol) at which compound starts interfering with growth, anaerobic, 3 days, 37° C., scored by turbidity. The method, then: as §1, §2, §3

With `CCCCCCC(O)CO` (centres unmarked) [caprylyl glycol], the “COMPATABILITY VALUE C3 [%]” value in the test on C. acnes strain C3 was 0.18%. Moreover, the “COMPATABILITY VALUE K8 [%]” value in the test on C. acnes strain K8 was found to be 0.18%.

As for ethylhexyl cocoate, the “COMPATABILITY VALUE C3 [%]” value in the test with C. acnes strain C3 came to 10.00%. The “COMPATABILITY VALUE K8 [%]” value in the test on C. acnes strain K8 is recorded as 10.00%.

As for tocopherol, the “COMPATABILITY VALUE C3 [%]” value with C. acnes strain C3 stood at 1.50%. In addition, the “COMPATABILITY VALUE K8 [%]” value in the test with C. acnes strain K8 was determined as 1.50%.

With `CC(CO)CO` [methylpropanediol], the “COMPATABILITY VALUE C3 [%]” value in the test with C. acnes strain C3 came out at 4.00%. Further, in the test on C. acnes strain K8, the “COMPATABILITY VALUE K8 [%]” value amounted to 4.00%.
